Reference: the supplement of paper PMC10307832

Key:
Assay in all cases: relative viability (nuclei count vs DMSO), 5 days (fraction); higher = more cells survive
Doramapimod + Pemetrexed = compound: Cc1ccc(-n2nc(C(C)(C)C)cc2NC(=O)Nc2ccc(OCCN3CCOCC3)c3ccccc23)cc1 [Doramapimod] + Nc1nc2[nH]cc(CCc3ccc(C(=O)N[C@@H](CCC(=O)O)C(=O)O)cc3)c2c(=O)[nH]1 [Pemetrexed] (partner 0.2 µM)
Summary of the method: (§1)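 Relative viability equals treated-well nuclei counts divided by vehicle-well nuclei counts. Counts came from 4× images of lung cancer cell lines grown in 1536-well plates for 5 days after pin-tool dosing on the day after seeding. Dosing used one drug alone or a fixed anchor-drug dose plus five library-drug doses (not always all listed) in √10 steps, and values are medians of duplicate plates.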

Doramapimod + Trametinib = compound: Cc1ccc(-n2nc(C(C)(C)C)cc2NC(=O)Nc2ccc(OCCN3CCOCC3)c3ccccc23)cc1 [Doramapimod] + CC(=O)Nc1cccc(-n2c(=O)n(C3CC3)c(=O)c3c(Nc4ccc(I)cc4F)n(C)c(=O)c(C)c32)c1 [Trametinib] (partner 0.02 µM)
Summary of the method: as §1

RAF265 + Dasatinib = compound: Cn1c(Nc2ccc(C(F)(F)F)cc2)nc2cc(Oc3ccnc(-c4ncc(C(F)(F)F)[nH]4)c3)ccc21 [RAF265] + Cc1nc(Nc2ncc(C(=O)Nc3c(C)cccc3Cl)s2)cc(N2CCN(CCO)CC2)n1 [Dasatinib] (partner 0.075 µM)
Summary of the method: as §1

IPA-3 + Tozasertib = compound: C1=CC=C2C(=C1)C=CC(=C2SSC3=C(C=CC4=CC=CC=C43)O)O [IPA-3] + Cc1cc(Nc2cc(N3CCN(C)CC3)nc(Sc3ccc(NC(=O)C4CC4)cc3)n2)n[nH]1 [Tozasertib] (partner 0.1 µM)
Summary of the method: as §1

Cell Line | relative viability (Doramapimod + Pemetrexed; first compound 0.02 µM) | relative viability (Doramapimod + Pemetrexed; first compound 0.06325 µM) | relative viability (Doramapimod + Pemetrexed; first compound 0.2 µM) | relative viability (Doramapimod + Pemetrexed; first compound 0.6325 µM) | relative viability (Doramapimod + Pemetrexed; first compound 2 µM) | relative viability (Doramapimod + Trametinib; first compound 0.02 µM) | relative viability (Doramapimod + Trametinib; first compound 0.06325 µM) | relative viability (Doramapimod + Trametinib; first compound 0.2 µM) | relative viability (Doramapimod + Trametinib; first compound 0.6325 µM) | relative viability (Doramapimod + Trametinib; first compound 2 µM) | relative viability (RAF265 + Dasatinib; first compound 0.01 µM) | relative viability (RAF265 + Dasatinib; first compound 0.03162 µM) | relative viability (RAF265 + Dasatinib; first compound 0.1 µM) | relative viability (RAF265 + Dasatinib; first compound 0.3162 µM) | relative viability (RAF265 + Dasatinib; first compound 1 µM) | relative viability (IPA-3 + Tozasertib; first compound 0.2 µM) | relative viability (IPA-3 + Tozasertib; first compound 0.6325 µM) | relative viability (IPA-3 + Tozasertib; first compound 2 µM) | relative viability (IPA-3 + Tozasertib; first compound 6.325 µM) | relative viability (IPA-3 + Tozasertib; first compound 20 µM)
NCI-H441 | 0.252 | 0.244 | 0.251 | 0.268 | 0.268 | 0.511 | 0.524 | 0.457 | 0.568 | 0.366 | 0.692 | 0.773 | 0.518 | 0.431 | 0.496 | 0.738 | 0.596 | 0.739 | 0.739 | 0.524
NCI-H460 | 0.0629 | 0.0546 | 0.0497 | 0.0506 | 0.0521 | 0.163 | 0.143 | 0.135 | 0.159 | 0.105 | 0.686 | 0.535 | 0.596 | 0.371 | 0.266 | 0.464 | 0.462 | 0.727 | 0.516 | 0.453
NCI-H520 | 0.607 | 0.638 | 0.732 | 0.537 | 0.683 | 0.648 | 0.59 | 0.72 | 0.723 | 0.536 | 0.177 | 0.206 | 0.197 | 0.187 | 0.171 | 0.459 | 0.444 | 0.468 | 0.434 | 0.447
NCI-H522 | 0.909 | 1.05 | 0.797 | 0.715 | 0.796 | 0.717 | 0.703 | 0.799 | 0.727 | 0.633 | 0.847 | 0.9 | 0.811 | 0.919 | 0.764 | 0.596 | 0.535 | 0.72 | 0.621 | 0.565
NCI-H596 | 0.484 | 0.52 | 0.468 | 0.522 | 0.479 | 0.802 | 0.845 | 0.915 | 0.852 | 0.806 | 0.63 | 0.76 | 0.582 | 0.612 | 0.366 | 0.968 | 0.907 | 1.11 | 1.02 | 1.04
NCI-H647 | 0.195 | 0.138 | 0.15 | 0.168 | 0.152 | 0.468 | 0.445 | 0.481 | 0.6 | 0.523 | 0.197 | 0.132 | 0.242 | 0.0861 | 0.0896 | 0.463 | 0.298 | 0.266 | 0.415 | 0.161
NCI-H650 | 0.741 | 0.938 | 0.976 | 1.06 | 0.9 | 0.963 | 0.977 | 0.988 | 1.05 | 0.978 | 0.464 | 0.429 | 0.369 | 0.265 | 0.259 | 0.823 | 0.694 | 0.786 | 0.703 | 0.831
NCI-H661 | 1.05 | 0.861 | 0.923 | 0.96 | 0.901 | 0.642 | 0.58 | 0.598 | 0.732 | 0.512 | 0.925 | 0.771 | 0.546 | 0.598 | 0.42 | 0.328 | 0.356 | 0.358 | 0.338 | 0.347
NCI-H838 | 0.238 | 0.252 | 0.276 | 0.263 | 0.246 | 0.493 | 0.549 | 0.506 | 0.56 | 0.411 | 0.332 | 0.3 | 0.288 | 0.256 | 0.256 | 0.32 | 0.268 | 0.304 | 0.282 | 0.27
NCI-H1355 | 1.06 | 1.04 | 0.999 | 1.05 | 0.894 | 0.456 | 0.393 | 0.376 | 0.43 | 0.408 | 0.804 | 0.709 | 0.545 | 0.601 | 0.264 | 0.596 | 0.566 | 0.599 | 0.586 | 0.656
NCI-H1395 | 0.82 | 1.04 | 0.889 | 0.836 | 0.696 | 0.999 | 0.967 | 1.05 | 1.08 | 0.946 | 0.449 | 0.432 | 0.395 | 0.336 | 0.372 | 0.732 | 0.761 | 0.72 | 0.733 | 0.8
NCI-H1437 | 0.291 | 0.287 | 0.323 | 0.329 | 0.302 | 0.477 | 0.486 | 0.423 | 0.423 | 0.486 | 0.451 | 0.416 | 0.403 | 0.397 | 0.395 | 0.482 | 0.387 | 0.416 | 0.394 | 0.468
NCI-H1650 | 0.345 | 0.357 | 0.447 | 0.387 | 0.375 | 0.612 | 0.665 | 0.734 | 0.763 | 0.496 | 0.413 | 0.392 | 0.342 | 0.399 | 0.282 | 0.485 | 0.414 | 0.489 | 0.421 | 0.517
NCI-H1651 | 0.576 | 0.731 | 0.594 | 0.658 | 0.595 | 0.811 | 0.865 | 0.823 | 0.792 | 0.825 | 0.417 | 0.408 | 0.368 | 0.398 | 0.263 | 0.727 | 0.613 | 0.883 | 0.708 | 0.691
NCI-H1666 | 0.841 | 0.916 | 0.819 | 0.948 | 0.913 | 0.84 | 0.895 | 0.936 | 0.907 | 0.795 | 0.868 | 0.814 | 0.768 | 0.87 | 0.781 | 0.611 | 0.604 | 0.594 | 0.6 | 0.703
NCI-H1734 | 0.416 | 0.431 | 0.419 | 0.382 | 0.39 | 0.599 | 0.611 | 0.599 | 0.587 | 0.514 | 0.482 | 0.373 | 0.369 | 0.358 | 0.266 | 0.275 | 0.269 | 0.251 | 0.306 | 0.23
NCI-H1755 | 0.328 | 0.371 | 0.435 | 0.394 | 0.35 | 0.849 | 0.887 | 0.751 | 0.761 | 0.714 | 0.404 | 0.427 | 0.33 | 0.294 | 0.195 | 0.586 | 0.568 | 0.552 | 0.561 | 0.504
NCI-H1793 | 0.885 | 0.963 | 0.957 | 0.918 | 0.657 | 0.418 | 0.435 | 0.408 | 0.377 | 0.406 | 0.486 | 0.401 | 0.361 |  | 0.227 | 0.316 | 0.271 | 0.368 | 0.377 | 0.425
NCI-H1915 | 0.452 | 0.464 | 0.498 | 0.699 | 0.419 | 0.303 | 0.313 | 0.311 | 0.311 | 0.277 | 0.342 | 0.332 | 0.213 | 0.151 | 0.137 | 0.466 | 0.425 | 0.446 | 0.428 | 0.513
NCI-H1944 | 0.573 | 0.623 | 0.503 | 0.595 | 0.572 | 0.387 | 0.343 | 0.43 | 0.419 | 0.396 | 0.284 | 0.277 | 0.225 | 0.178 | 0.19 | 0.263 | 0.268 | 0.264 | 0.246 | 0.26
NCI-H1975 | 0.305 | 0.276 | 0.304 | 0.293 | 0.282 | 0.337 | 0.307 | 0.348 | 0.4 | 0.331 | 0.335 | 0.226 | 0.237 | 0.177 | 0.124 | 0.833 | 0.685 | 0.855 | 0.906 | 0.755
NCI-H1993 | 0.627 | 0.517 | 0.504 | 0.658 | 0.558 | 0.458 | 0.504 | 0.622 | 0.45 | 0.434 | 0.618 | 0.497 | 0.545 | 0.619 | 0.528 | 0.625 | 0.578 | 0.586 | 0.56 | 0.601
NCI-H2009 | 1.03 | 1.04 | 1.06 | 1.01 | 1 | 0.285 | 0.247 | 0.351 | 0.308 | 0.239 | 0.3 | 0.262 | 0.227 | 0.214 | 0.147 | 0.805 | 0.681 | 0.834 | 0.718 | 0.725
NCI-H2023 | 0.215 | 0.219 | 0.226 | 0.259 | 0.215 | 0.493 | 0.447 | 0.489 | 0.634 | 0.548 | 0.601 | 0.562 | 0.516 | 0.419 | 0.365 | 0.321 | 0.347 | 0.365 | 0.39 | 0.424
NCI-H2085 | 0.938 | 0.972 | 0.926 | 1.07 | 0.657 | 0.496 | 0.494 | 0.502 | 0.471 | 0.494 | 0.241 | 0.315 | 0.289 | 0.205 | 0.276 | 0.907 | 0.748 | 0.823 | 0.908 | 0.951
NCI-H2087 | 0.589 | 0.646 | 0.597 | 0.573 | 0.61 | 0.235 | 0.163 | 0.198 | 0.197 | 0.193 | 0.743 | 0.76 | 0.6 | 0.639 | 0.383 | 0.273 | 0.349 | 0.274 | 0.221 | 0.253
